Values of other authors as cited in patent US7943796B2, “Lubricating oil additive and lubricating oil composition containing same” (Chevron Oronise Company LLC, priority 2008, dated 2011).

System: estrogen-inducible strain of yeast
Settings: among alkylphenols, compared with 17β-estradiol

CC(C)(C)CC(C)(C)c1ccc(O)cc1 [4-tert-octylphenol, 4-(1,1,3,3-Tetramethyl-butyl)-phenol]
estrogenic activity: highest activity
